# Assay results taken from US4873233A, “17-Substituted androsta-1,4-dien-3-one derivatives” (Farmitalia Carlo Erba S.p.a., priority 1987, dated 1989).
# Target: T1, androgen receptor (Rattus norvegicus, UniProt P15207)
# T1 sequence (P15207 1-902): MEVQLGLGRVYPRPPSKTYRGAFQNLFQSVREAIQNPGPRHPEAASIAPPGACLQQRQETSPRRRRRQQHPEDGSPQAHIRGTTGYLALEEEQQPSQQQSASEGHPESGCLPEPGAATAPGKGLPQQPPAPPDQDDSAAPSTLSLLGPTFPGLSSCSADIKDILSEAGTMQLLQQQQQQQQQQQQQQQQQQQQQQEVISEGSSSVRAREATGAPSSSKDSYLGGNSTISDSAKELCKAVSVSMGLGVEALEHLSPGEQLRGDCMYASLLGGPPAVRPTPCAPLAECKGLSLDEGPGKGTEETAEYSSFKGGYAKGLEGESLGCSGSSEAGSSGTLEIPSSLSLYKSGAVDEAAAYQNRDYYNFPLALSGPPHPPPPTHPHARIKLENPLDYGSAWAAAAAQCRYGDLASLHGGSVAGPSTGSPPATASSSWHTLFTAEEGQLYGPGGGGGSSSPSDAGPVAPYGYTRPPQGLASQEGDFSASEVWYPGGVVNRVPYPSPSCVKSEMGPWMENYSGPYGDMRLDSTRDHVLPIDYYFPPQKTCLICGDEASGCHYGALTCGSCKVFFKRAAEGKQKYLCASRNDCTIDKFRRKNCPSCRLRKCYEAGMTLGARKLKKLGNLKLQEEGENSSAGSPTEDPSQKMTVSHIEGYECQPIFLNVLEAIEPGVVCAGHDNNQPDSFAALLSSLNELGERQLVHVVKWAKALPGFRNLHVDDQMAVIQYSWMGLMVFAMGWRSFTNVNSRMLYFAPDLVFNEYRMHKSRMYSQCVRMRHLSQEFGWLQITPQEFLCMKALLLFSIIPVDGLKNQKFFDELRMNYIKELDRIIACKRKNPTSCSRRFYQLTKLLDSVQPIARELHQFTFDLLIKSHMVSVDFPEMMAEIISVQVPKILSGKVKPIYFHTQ
# Experiment: Binding affinity to cytoplasmic androgen (rat prostate) receptors, dextran-coated charcoal adsorption technique
# Procedure: Binding affinity to cytoplasmic androgen (rat prostate) receptors was determined by standard dextran-coated charcoal adsorption technique (Raynaud J. P. et al. J. Steroid. Biochem. 6, 615-622, 1975).
# Prostatic tissue, obtained from both adrenalectomized and orchidectomized Sprague-Dawley rats, was homogenized (1:10 weight:vol ratio) in 10 mM Tris-HCl PH 7.4, containing 1.5 nM EDTA and 1 mM dithiothreitol, in motor driven tissue grinders. The homogenate was centrifuged at 105,000×g for 1 h at 2° C. Aliquots of cytosol (0.2 ml) were incubated for 2 h at 0° C. with various concentrations of the test compounds, in duplicate, and a fixed amount of [^3 H]-5α-dihydrotestosterone (DHT, final concentration 1 nM in 0.4 ml of incubation volume). Then, free radioactivity was adsorbed on 0.2 ml of dextran-coated charcoal suspension and after centrifugation at 1,500×g for 10 min, the bound radioactivity in the supernatant was determined by liquid scintillation in RIaluma.
structure (smiles),measurement,setting,value
"C=C1C[C@H]2[C@@H]3CC[C@H](O)[C@@]3(C)CC[C@@H]2[C@@]2(C)C=CC(=O)C=C12 [6-methylenandrosta-1,4-diene-17β-ol-3-one]",affinity to the androgen receptor (in words),,very high affinity
same,times more potent than the correspondent 17-cheto-derivative (androgen receptor affinity),"versus 6-methylenandrosta-1,4-diene-3,17-dione",76 times
